Test results: patent US10029992B2, “Diaminotriazine compounds and their use as herbicides” (BASF SE, priority 2014, dated 2018)

Tests used:
Experiment in all cases: Greenhouse experiment, pre-emergence treatment
Settings in all cases: pre-emergence method
[1] = system: AMARE; assay type: in vivo, Amaranthus retroflexus
From the text: (§1) The seeds of the test plants were sown separately for each species. For the pre-emergence treatment, the active ingredients, which had been suspended or emulsified in water, were applied directly after sowing by means of finely distributing nozzles. The containers were irrigated gently to promote germination and growth and subsequently covered with transparent plastic hoods until the plants had rooted. This cover caused uniform germination of the test plants, unless this had been impaired by the active ingredients. Depending on the species, the plants were kept at 10-25° C. or 20-35° C., respectively. The test period extended over 2 to 4 weeks. During this time, the plants were tended, and their response to the individual treatments was evaluated. Evaluation was carried out using a scale from 0 to 100. 100 means no emergence of the plants, or complete destruction of at least the aerial moieties, and 0 means no damage, or normal course of growth. A moderate herbicidal activity is given at values of at least 60, a good herbicidal activity is given at values of at least 70, and a very good herbicidal activity is given at values of at least 85. […] [table]

[2] = system: APESV; assay type: in vivo, Apera spica-venti
From the text: (§2) The culture containers used were plastic flowerpots containing loamy sand with approximately 3.0% of humus as the substrate. The seeds of the test plants were sown separately for each species.
(§3) For the pre-emergence treatment, the active ingredients, which had been suspended or emulsified in water, were applied directly after sowing by means of finely distributing nozzles. The containers were irrigated gently to promote germination and growth and subsequently covered with transparent plastic hoods until the plants had rooted. This cover caused uniform germination of the test plants, unless this had been impaired by the active ingredients.
(§4) Depending on the species, the plants were kept at 10-25° C. or 20-35° C., respectively.
(§5) The test period extended over 2 to 4 weeks. During this time, the plants were tended, and their response to the individual treatments was evaluated.
(§6) Evaluation was carried out using a scale from 0 to 100. 100 means no emergence of the plants, or complete destruction of at least the aerial moieties, and 0 means no damage, or normal course of growth. A moderate herbicidal activity is given at values of at least 60, a good herbicidal activity is given at values of at least 70, and a very good herbicidal activity is given at values of at least 85.
(§7) The plants used in the greenhouse experiments were of the following species: […]

[3] = system: ECHCG; assay type: in vivo, Echinochloa crus-galli
From the text: as §2, §3, §4, §5, §6, §7

[4] = system: SETFA; assay type: in vivo, Setaria faberi
From the text: as §1

SMILES: CC(C)(F)c1nc(N)nc(Nc2c(F)cccc2Oc2cccc(F)c2)n1 [Example 10]
- herbicidal activity against AMARE ([1]; application rate 0.5 kg/ha): very good (a very good herbicidal activity is given at values of at least 85)
- herbicidal activity against APESV ([2]; application rate 0.5 kg/ha): very good (a very good herbicidal activity is given at values of at least 85)
- herbicidal activity against ECHCG ([3]; application rate 0.5 kg/ha): very good (a very good herbicidal activity is given at values of at least 85)

SMILES: Cc1cc(C)cc(Oc2cccc(F)c2Nc2nc(N)nc(CC(C)C)n2)c1 [Example 17]
- herbicidal activity against APESV ([2]; application rate 1000 g/ha): good (a good herbicidal activity is given at values of at least 70)
- herbicidal activity against SEFTA ([4]; application rate 1000 g/ha): very good (a very good herbicidal activity is given at values of at least 85)

SMILES: Cc1cc(C)cc(Oc2cccc(F)c2Nc2nc(N)nc(C(C)C)n2)c1 [Example 19]
- herbicidal activity against APESV ([2]; application rate 0.25 kg/ha): very good (a very good herbicidal activity is given at values of at least 85)
- herbicidal activity against APESV ([2]; application rate 250 g/ha): very good (a very good herbicidal activity is given at values of at least 85)
- herbicidal activity against ECHCG ([3]; application rate 0.25 kg/ha): very good (a very good herbicidal activity is given at values of at least 85)
- herbicidal activity against ECHCG ([3]; application rate 250 g/ha): very good (a very good herbicidal activity is given at values of at least 85)
- herbicidal activity against SETFA ([4]; application rate 0.25 kg/ha): very good (a very good herbicidal activity is given at values of at least 85)
- herbicidal activity against SEFTA ([4]; application rate 250 g/ha): very good (a very good herbicidal activity is given at values of at least 85)

SMILES: COc1cc(OC)cc(Oc2cccc(F)c2Nc2nc(N)nc(C(C)(C)F)n2)c1 [Example 27]
- herbicidal activity against APESV ([2]; application rate 0.25 kg/ha): very good (a very good herbicidal activity is given at values of at least 85)
- herbicidal activity against ECHCG ([3]; application rate 0.25 kg/ha): very good (a very good herbicidal activity is given at values of at least 85)
- herbicidal activity against SETFA ([4]; application rate 0.25 kg/ha): very good (a very good herbicidal activity is given at values of at least 85)

SMILES: CCC(C)(F)c1nc(N)nc(Nc2c(F)cccc2Oc2cc(C)cc(C)c2)n1 (centres unmarked) [Example 32]
- herbicidal activity against APESV ([2]; application rate 0.25 kg/ha): very good (a very good herbicidal activity is given at values of at least 85)
- herbicidal activity against ECHCG ([3]; application rate 0.25 kg/ha): very good (a very good herbicidal activity is given at values of at least 85)
- herbicidal activity against SETFA ([4]; application rate 0.25 kg/ha): very good (a very good herbicidal activity is given at values of at least 85)

SMILES: Cc1cc(C)cc(Oc2cccc(Cl)c2Nc2nc(N)nc(C(C)(C)F)n2)c1 [Example 37]
- herbicidal activity against APESV ([2]; application rate 0.25 kg/ha): very
- herbicidal activity against ECHCG ([3]; application rate 0.25 kg/ha): good (a good herbicidal activity is given at values of at least 70)

SMILES: CC(C)(F)c1nc(N)nc(Nc2c(F)c(F)cc(-c3ccccc3)c2F)n1 [Example 44]
- herbicidal activity against AMARE ([1]; application rate 0.5 kg/ha): good to very good
- herbicidal activity against SETFA ([4]; application rate 0.5 kg/ha): good (a good herbicidal activity is given at values of at least 70)

SMILES: CN(C)c1cc(Oc2cccc(F)c2Nc2nc(N)nc(C(C)(C)F)n2)cc(C(F)(F)F)c1 [Example 80]
- herbicidal activity against ECHCG ([3]; application rate 125 g/ha): very good (a very good herbicidal activity is given at values of at least 85)
- herbicidal activity against SETFA ([4]; application rate 125 g/ha): very good (a very good herbicidal activity is given at values of at least 85)

SMILES: Cc1cc(OCC2CCC2)cc(Oc2cccc(F)c2Nc2nc(N)nc(C(C)(C)F)n2)c1 [Example 83]
- herbicidal activity against AMARA ([1]; application rate 250 g/ha): very good (a very good herbicidal activity is given at values of at least 85)
- herbicidal activity against APESV ([2]; application rate 250 g/ha): good (a good herbicidal activity is given at values of at least 70)
- herbicidal activity against ECHCG ([3]; application rate 250 g/ha): good (a good herbicidal activity is given at values of at least 70)

SMILES: COc1cc(I)cc(Oc2cccc(F)c2Nc2nc(N)nc(C(C)(C)F)n2)c1 [Example 84]
- herbicidal activity against AMARA ([1]; application rate 250 g/ha): very good (a very good herbicidal activity is given at values of at least 85)
- herbicidal activity against ECHCG ([3]; application rate 250 g/ha): very good (a very good herbicidal activity is given at values of at least 85)
- herbicidal activity against SETFA ([4]; application rate 250 g/ha): very good (a very good herbicidal activity is given at values of at least 85)

SMILES: Cc1cc(Oc2cccc(F)c2Nc2nc(N)nc(C(C)(C)F)n2)cc(OC2CCCC2)c1 [Example 85]
- herbicidal activity against AMARA ([1]; application rate 250 g/ha): very good (a very good herbicidal activity is given at values of at least 85)

SMILES: Cc1cc(Oc2cccc(F)c2Nc2nc(N)nc(C(C)(C)F)n2)cc(OC2CCCCC2)c1 [Example 86]
- herbicidal activity against SEFTA ([4]; application rate 500 g/ha): good (a good herbicidal activity is given at values of at least 70)

SMILES: CC(C)(F)c1nc(N)nc(Nc2c(F)cccc2Oc2cc(-c3ccccc3)cc(C(F)(F)F)c2)n1 [Example 87]
- herbicidal activity against AMARA ([1]; application rate 500 g/ha): very good (a very good herbicidal activity is given at values of at least 85)
- herbicidal activity against ECHCG ([3]; application rate 500 g/ha): very good (a very good herbicidal activity is given at values of at least 85)
- herbicidal activity against SETFA ([4]; application rate 500 g/ha): very good (a very good herbicidal activity is given at values of at least 85)

SMILES: CC(C)(F)c1nc(N)nc(Nc2c(F)cccc2Oc2cccc(C(F)(F)F)c2)n1 [Example 88]
- herbicidal activity against AMARA ([1]; application rate 500 g/ha): very good (a very good herbicidal activity is given at values of at least 85)
- herbicidal activity against ECHCG ([3]; application rate 500 g/ha): very good (a very good herbicidal activity is given at values of at least 85)
- herbicidal activity against SETFA ([4]; application rate 500 g/ha): very good (a very good herbicidal activity is given at values of at least 85)

SMILES: CCc1cccc(Oc2cccc(F)c2Nc2nc(N)nc(C(C)(C)F)n2)c1 [Example 90]
- herbicidal activity against AMARE ([1]; application rate 500 g/ha): very good (a very good herbicidal activity is given at values of at least 85)
- herbicidal activity against APESV ([2]; application rate 500 g/ha): very good (a very good herbicidal activity is given at values of at least 85)
- herbicidal activity against ECHCG ([3]; application rate 500 g/ha): very good (a very good herbicidal activity is given at values of at least 85)

SMILES: COC(=O)c1cccc(Oc2cccc(F)c2Nc2nc(N)nc(C(C)(C)F)n2)c1 [Example 91]
- herbicidal activity against APESV ([2]; application rate 500 g/ha): very good (a very good herbicidal activity is given at values of at least 85)

SMILES: CC(C)(C)c1cccc(Oc2cccc(F)c2Nc2nc(N)nc(C(C)(C)F)n2)c1 [Example 92]
- herbicidal activity against APESV ([2]; application rate 500 g/ha): very good (a very good herbicidal activity is given at values of at least 85)
- herbicidal activity against ECHCG ([3]; application rate 500 g/ha): very good (a very good herbicidal activity is given at values of at least 85)
- herbicidal activity against SETFA ([4]; application rate 500 g/ha): very good (a very good herbicidal activity is given at values of at least 85)

SMILES: CC(C)(F)c1nc(N)nc(Nc2c(F)cccc2Oc2cccc(Br)c2)n1 [Example 93]
- herbicidal activity against APESV ([2]; application rate 500 g/ha): very good (a very good herbicidal activity is given at values of at least 85)
- herbicidal activity against ECHCG ([3]; application rate 500 g/ha): very good (a very good herbicidal activity is given at values of at least 85)
- herbicidal activity against SETFA ([4]; application rate 500 g/ha): very good (a very good herbicidal activity is given at values of at least 85)

SMILES: CC(C)(F)c1nc(N)nc(Nc2c(F)cccc2Oc2cccc(Cl)c2)n1 [Example 94]
- herbicidal activity against APESV ([2]; application rate 500 g/ha): very good (a very good herbicidal activity is given at values of at least 85)
- herbicidal activity against ECHCG ([3]; application rate 500 g/ha): very good (a very good herbicidal activity is given at values of at least 85)
- herbicidal activity against SETFA ([4]; application rate 500 g/ha): very good (a very good herbicidal activity is given at values of at least 85)

SMILES: CC(C)(F)c1nc(N)nc(Nc2c(F)cccc2Oc2cccc(OC(F)F)c2)n1 [Example 95]
- herbicidal activity against APESV ([2]; application rate 500 g/ha): very good (a very good herbicidal activity is given at values of at least 85)
- herbicidal activity against ECHCG ([3]; application rate 500 g/ha): very good (a very good herbicidal activity is given at values of at least 85)
- herbicidal activity against SETFA ([4]; application rate 500 g/ha): very good (a very good herbicidal activity is given at values of at least 85)

SMILES: CC(C)(F)c1nc(N)nc(Nc2c(F)cccc2Oc2cc(OC(F)(F)F)cc(-c3ccccc3)c2)n1 [Example 98]
- herbicidal activity against AMARE ([1]; application rate 500 g/ha): very good (a very good herbicidal activity is given at values of at least 85)
- herbicidal activity against ECHCG ([3]; application rate 500 g/ha): very good (a very good herbicidal activity is given at values of at least 85)
- herbicidal activity against SETFA ([4]; application rate 500 g/ha): very good (a very good herbicidal activity is given at values of at least 85)

SMILES: CN(c1ccccc1)c1cccc(F)c1Nc1nc(N)nc(C(C)(C)F)n1 [Example 102]
- herbicidal activity against AMARE ([1]; application rate 1000 g/ha): very good (a very good herbicidal activity is given at values of at least 85)
- herbicidal activity against ECHCG ([3]; application rate 1000 g/ha): very good (a very good herbicidal activity is given at values of at least 85)
- herbicidal activity against SEFTA ([4]; application rate 1000 g/ha): very good (a very good herbicidal activity is given at values of at least 85)

SMILES: Cc1cccc(N(C)c2cccc(F)c2Nc2nc(N)nc(C(C)(C)F)n2)c1 [Example 103]
- herbicidal activity against AMARE ([1]; application rate 500 g/ha): very good (a very good herbicidal activity is given at values of at least 85)
- herbicidal activity against ECHCG ([3]; application rate 500 g/ha): very good (a very good herbicidal activity is given at values of at least 85)
- herbicidal activity against SEFTA ([4]; application rate 500 g/ha): very good (a very good herbicidal activity is given at values of at least 85)
